Experimental data published in patent US20070248672A1, “Indole and Azaindole Derivatives with Antitumor Action” (priority 2004, published 2007).
Read-outs that look alike come from different tables or passages of the source.

What was measured:
[1] = biological target: Vacuolar ATPase in bovine chromaffin cells membranes (BCG) (Bos taurus, UniProt P23956+Q29466); assay: Vacuolar ATPase inhibition in bovine chromaffin cells membranes (BCG); type: biochemical; conditions: read-out: ATPase activity (IC50) BCG; bovine chromaffin cell membranes
Protocol: Inhibition of bafilomycin sensitive ATPase activity is assayed by measuring the release of inorganic phosphate during 30 minutes of incubation, at 37° C., of the human osteoclastoma microsomal fraction in 96-well plates. The reaction medium contains 1 mM ATP, 10 mM Hepes-Tris buffer pH 8, 50 mM KCl, 5 μM valinomycin, 5 μM nigericin, 1 mM CDTA-Tris, 100 μM ammonium molybdate, 0.2 M sucrose and the microsomal fraction (20 μg protein/ml). The reaction is initiated by adding MgSO4 and terminated, after 30 minutes, by adding 4 volumes of the reagent malachite green, prepared according to Chan K., Anal. Biochem. 157, 375-380, 1986.
1.2 Determination of Vacuolar ATpase Inhibition in the Bovine Chromaffin Cells Membranes (BCG)
About 20 adrenal glands (Cidon S., J. Biol. Chem. 258, 2892-2898, 1983) are removed from healthy bovines; the medulla is quickly separated from the cortex, which is discarded. The medulla is homogenised at 4° C. with a suitable medium at pH 7.5, then filtered. The remaining solid material is further homogenised, filtered and recombined with the preceding filtrate, resuspended and centrifuged at 1000 g for 15 minutes; the supernatant obtained is centrifuged at 10000 g for 20 minutes. The resultant pellet is resuspended and stratified through a sucrose gradient formed of a lower part of 15 ml 1.5 M sucrose and an upper part of 10 ml 1.2 M sucrose. After overnight centrifugation at 4° C. with a SW28 rotor at 20000 rpm, the chromaffiln cells sediment into a pellet. This latter is resuspended, centrifuged at 3000 g for 10 minutes, and the supernatant obtained is centrifuged at 200000 g for 60 minutes. The pellet is then resuspended in 4 ml of a suitable medium containing 0.2 μg/ml pepstatin A and 0.4 μg/ml leupeptin and stored under liquid nitrogen.
The method for ATPase inhibition assay is the same as that followed for the osteoclastoma.

HT29/Mit cells = assay: Antiproliferative activity, 72 h treatment, SRB assay, HT29/Mit resistant line; type: cell-based, human; conditions: Homo sapiens
Protocol: HT29 and HT29/Mit (line obtained by prolonged exposure to mitoxantrone, and characterised by overexpression of BCRP, which confers cross resistance to topotecan, irinotecan and to its metabolite SN38): maintained in McCoy 5A medium+10% FCS.
2.2 Scheme of the Antiproliferative Activity Experiment (Treatment Time: 72 Hours)
The cells (HT29 and HT29/Mit: 40,000 cells/ml, LoVo, LoVo/Dx and HCT116: 50,000 cells/ml) are seeded in 100 μl of the respective culture media in 96-well plates. 24 hours after seeding, an aliquot (10 μl) of drug at the various concentrations is added. In the samples in which the effect of the combination of two compounds is to be tested the inhibitor is added immediately before the cytotoxic. For each dose or combination of doses/drugs the effect of the treatment is determined in 4-8 replicates.
After 72 hours of treatment the antiproliferative effect is evaluated using the sulforhodamine B (SRB) assay: the cells are fixed by adding 25 μl of 50% TCA to each well and left for 1 hour at 4° C. After washing them with water and allowing them to dry, 100 μl of 0.4% SRB in 1% acetic acid are added and left for 30 minutes at room temperature. After 4 washes in 1% acetic acid, they are left to dry then the dye fixed by the proteins is dissolved under basic conditions with 100 μl 10 mM cold Tris and the solution is read using a spectrophotometer at 550 nm.
Percentage cell growth is calculated as the optical density of treated samples compared to the optical density of controls (untreated cells).

Sequence of Vacuolar ATPase in bovine chromaffin cells membranes (BCG) (P23956 whole entry, looked up): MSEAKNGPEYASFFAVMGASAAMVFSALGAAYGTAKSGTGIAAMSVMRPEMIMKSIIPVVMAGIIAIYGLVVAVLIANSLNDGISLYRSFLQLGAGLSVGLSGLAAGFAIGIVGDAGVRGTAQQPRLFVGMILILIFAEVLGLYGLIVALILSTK
Sequence of Vacuolar ATPase in bovine chromaffin cells membranes (BCG) (Q29466 whole entry, looked up): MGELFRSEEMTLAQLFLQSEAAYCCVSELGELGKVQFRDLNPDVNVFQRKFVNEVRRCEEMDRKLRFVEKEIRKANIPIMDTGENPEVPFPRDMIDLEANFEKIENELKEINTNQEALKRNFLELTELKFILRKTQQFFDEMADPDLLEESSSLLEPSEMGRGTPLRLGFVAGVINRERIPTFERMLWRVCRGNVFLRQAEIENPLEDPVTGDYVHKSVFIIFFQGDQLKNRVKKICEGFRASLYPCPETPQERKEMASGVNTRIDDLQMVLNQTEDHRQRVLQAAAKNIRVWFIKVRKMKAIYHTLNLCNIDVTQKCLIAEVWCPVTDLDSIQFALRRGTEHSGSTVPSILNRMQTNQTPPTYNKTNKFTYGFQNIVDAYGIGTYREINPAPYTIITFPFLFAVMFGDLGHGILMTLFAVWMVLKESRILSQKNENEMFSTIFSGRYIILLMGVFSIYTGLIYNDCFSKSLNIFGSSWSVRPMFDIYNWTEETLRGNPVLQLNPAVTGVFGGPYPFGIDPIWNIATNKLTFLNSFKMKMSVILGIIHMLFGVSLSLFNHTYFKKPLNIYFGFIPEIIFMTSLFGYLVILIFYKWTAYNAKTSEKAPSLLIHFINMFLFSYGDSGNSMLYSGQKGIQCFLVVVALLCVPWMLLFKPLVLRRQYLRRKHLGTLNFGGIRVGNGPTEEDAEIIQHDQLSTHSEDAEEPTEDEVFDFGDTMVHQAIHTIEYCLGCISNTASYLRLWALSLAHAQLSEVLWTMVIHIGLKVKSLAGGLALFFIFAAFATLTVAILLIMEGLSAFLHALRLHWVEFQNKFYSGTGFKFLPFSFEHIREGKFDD

COC(=O)c1[nH]c2cc(OC)c(OC)cc2c1-c1ccc(OC)cc1 [Example 1, 5,6-Dimethoxy-3-(4-methoxy-phenyl)-1H-indole-2-carboxylic acid methyl ester]
IC50 [1]: 644 nM | IC50 (HT29/Mit cells; HT-29, HT29/Mit, after 72 hours of treatment, range stated for the group, read-out: IC50 values in the resistant line): 100 to 3000 nM | IC50 (HT29/Mit cells; HT-29/Mit resistant line, 72 h treatment, read-out: Antiproliferative activity (IC50 ± S.D.) HT-29/Mit): 1000 ± 900 nM
